From patent US10829501B2 (BRISTOL-MYERS SQUIBB COMPANY, priority 2016, dated 2020)
Where a name gives a salt, the structure may show the parent alone.

Target: ROCK2 (Homo sapiens, UniProt O75116)
Experiment: ROCK2 kinase inhibition assay (LABCHIP 3000 Reader, FITC peptide substrate);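 further: rho kinase reaction read by separating phosphorylated from unphosphorylated peptide on chip, with inhibition of kinase activity computed per concentration across a dose-response series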
Details: not given

Chain of ROCK2 (O75116 whole entry, species assumed): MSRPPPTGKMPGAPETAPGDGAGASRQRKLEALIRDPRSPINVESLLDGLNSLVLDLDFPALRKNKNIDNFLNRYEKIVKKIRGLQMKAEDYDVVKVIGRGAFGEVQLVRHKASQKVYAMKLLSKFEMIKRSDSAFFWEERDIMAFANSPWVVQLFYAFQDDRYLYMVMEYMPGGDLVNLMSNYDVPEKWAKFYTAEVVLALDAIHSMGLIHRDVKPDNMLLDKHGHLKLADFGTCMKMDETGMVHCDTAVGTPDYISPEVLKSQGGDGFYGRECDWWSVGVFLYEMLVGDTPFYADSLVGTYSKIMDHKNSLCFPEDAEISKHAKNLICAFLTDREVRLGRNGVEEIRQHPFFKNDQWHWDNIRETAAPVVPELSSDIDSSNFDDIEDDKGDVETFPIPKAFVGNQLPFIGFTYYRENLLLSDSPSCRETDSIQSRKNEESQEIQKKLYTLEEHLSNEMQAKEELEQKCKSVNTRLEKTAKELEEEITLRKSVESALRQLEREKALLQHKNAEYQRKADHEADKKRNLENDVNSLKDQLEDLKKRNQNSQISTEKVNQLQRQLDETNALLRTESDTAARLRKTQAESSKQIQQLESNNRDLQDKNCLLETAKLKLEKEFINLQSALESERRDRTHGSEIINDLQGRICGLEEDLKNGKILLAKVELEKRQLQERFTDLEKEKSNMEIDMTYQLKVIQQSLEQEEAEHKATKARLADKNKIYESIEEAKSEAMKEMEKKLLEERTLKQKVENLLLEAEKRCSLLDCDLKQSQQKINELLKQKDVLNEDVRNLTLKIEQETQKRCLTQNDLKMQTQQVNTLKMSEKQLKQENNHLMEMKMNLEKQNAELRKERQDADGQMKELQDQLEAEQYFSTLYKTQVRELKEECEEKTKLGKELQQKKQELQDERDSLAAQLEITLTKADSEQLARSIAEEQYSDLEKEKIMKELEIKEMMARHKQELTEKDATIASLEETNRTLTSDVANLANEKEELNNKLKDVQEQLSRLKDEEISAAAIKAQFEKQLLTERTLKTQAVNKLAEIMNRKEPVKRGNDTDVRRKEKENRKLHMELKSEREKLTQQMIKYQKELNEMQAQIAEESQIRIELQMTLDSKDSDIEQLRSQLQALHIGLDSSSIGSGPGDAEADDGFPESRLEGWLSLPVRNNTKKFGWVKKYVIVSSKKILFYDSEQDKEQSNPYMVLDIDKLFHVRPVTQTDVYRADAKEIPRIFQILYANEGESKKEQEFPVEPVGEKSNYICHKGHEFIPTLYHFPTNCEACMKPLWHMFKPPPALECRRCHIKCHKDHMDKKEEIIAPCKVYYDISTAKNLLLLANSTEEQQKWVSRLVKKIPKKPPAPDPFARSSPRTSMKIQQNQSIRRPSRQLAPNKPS

IC50 [nM]	Compound
50 to 250	[H][C@]1(Oc2ncccc2C(N)=O)C[C@]2(C[C@@H](NC(=O)c3cn4ccc(OCc5ccccc5)cc4n3)C2)C1 (stereo partly drawn) [Example 463, 7-(benzyloxy)-N-((aR)-6-((3-carbamoylpyridin-2-yl)oxy)spiro 3.31 heptan-2-yl)imidazo[1,2-a]pyridine-2-carboxamide, TFA Salt]

Same assay, conditions: read-out: ROCK2 Activity (ROCK2 IC50); 5 μM ATP, 1.5 μM peptide substrate, pH 7.5

IC50 [nM]	Compound
250 to 2500	CC(C)(CN)Oc1ccc2c(C(=O)NC3CC4(C3)CC(Oc3ncccc3C(N)=O)C4)nc(C(F)F)n2c1 [Example 443, 6-((1-amino-2-methylpropan-2-yl)oxy)-N-((aR)-6-((3-carbamoylpyridin-2-yl)oxy)spiro[3.3]heptan-2-yl)-3-(difluoromethyl)imidazo[1,5-a]pyridine-1-carboxamide]
< 5	C[C@@H]1CN(c2ccc3c(C(=O)NC4CC5(C4)CC(Oc4ncccc4C(N)=O)C5)nc(C(F)F)n3c2)C[C@H](C)O1 (stereo partly drawn) [Example 444, N-((aR)-6-((3-carbamoylpyridin-2-yl)oxy)spiro[3.3]heptan-2-yl)-3-(difluoromethyl)-6-((2S,6R)-2,6-dimethylmorpholino)imidazo[1,5-a]pyridine-1-carboxamide]
< 5	Cc1nn(C)cc1-c1ccc2c(C(=O)NC3CC4(C3)CC(Oc3ncccc3C(N)=O)C4)nc(C(F)F)n2c1 [Example 445, N-((aR)-6-((3-carbamoylpyridin-2-yl)oxy)spiro[3.3]heptan-2-yl)-3-(difluoromethyl)-6-(1,3-dimethyl-1H-pyrazol-4-yl)imidazo[1,5-a]pyridine-1-carboxamide]
< 5	Cc1ncc(-c2cc(C(=O)NC3CC4(C3)CC(Oc3ncccc3C(N)=O)C4)cc(C(F)(F)F)c2)s1 [Example 446, 2-(((aR)-6-(3-(2-methylthiazol-5-yl)-5-(trifluoromethyl)benzamido)spiro[3.3]heptan-2-yl)oxy)nicotinamide]
5 to 50	Cn1cc(-c2cc(C(=O)NC3CC4(C3)CC(Oc3ncccc3C(N)=O)C4)cc(C(F)(F)F)c2)c(C(F)(F)F)n1 [Example 447, 2-(((aR)-6-(3-(1-methyl-3-(trifluoromethyl)-1H-pyrazol-4-yl)-5-(trifluoromethyl)benzamido)spiro[3.3]heptan-2-yl)oxy)nicotinamide]
< 5	Cc1nn(C)cc1-c1cc(C(=O)NC2CC3(C2)CC(Oc2ncccc2C(N)=O)C3)cc(C(F)(F)F)c1 [Example 448, 2-(((aR)-6-(3-(1,3-dimethyl-1H-pyrazol-4-yl)-5-(trifluoromethyl)benzamido)spiro[3.3]heptan-2-yl)oxy)nicotinamide]
5 to 50	Cn1cncc1-c1cc(C(=O)NC2CC3(C2)CC(Oc2ncccc2C(N)=O)C3)cc(C(F)(F)F)c1 [Example 449, 2-(((aR)-6-(3-(1-methyl-1H-imidazol-5-yl)-5-(trifluoromethyl)benzamido)spiro[3.3]heptan-2-yl)oxy)nicotinamide]
5 to 50	CC1(O)CCN(c2cc(C(=O)NC3CC4(C3)CC(Oc3ncccc3C(N)=O)C4)cc(C(F)(F)F)c2)CC1 [Example 450, 2-(((aR)-6-(3-(4-hydroxy-4-methylpiperidin-1-yl)-5-(trifluoromethyl)benzamido)spiro[3.3]heptan-2-yl)oxy)nicotinamide]
5 to 50	NC(=O)c1cccnc1OC1CC2(CC(NC(=O)c3nc(C(F)F)n4cc(N5CCOC(CCO)C5)ccc34)C2)C1 [Example 451, N-((aR)-6-((3-carbamoylpyridin-2-yl)oxy)spiro[3.3]heptan-2-yl)-3-(difluoromethyl)-6-(2-(2-hydroxyethyl)morpholino)imidazo[1,5-a]pyridine-1-carboxamide]
5 to 50	NC(=O)c1cccnc1OC1CC2(CC(NC(=O)c3cc(N4CC5CC4CO5)cc(C(F)(F)F)c3)C2)C1 [Example 452, 2-(((aR)-6-(3-(2-oxa-5-azabicyclo[2.2.1]heptan-5-yl)-5-(trifluoromethyl)benzamido)spiro[3.3]heptan-2-yl)oxy)nicotinamide]
5 to 50	CC(=O)N(C)Cc1ccc2c(C(=O)NC3CC4(C3)CC(Oc3ncccc3C(N)=O)C4)nc(C(F)F)n2c1 [Example 453, N-((aR)-6-((3-carbamoylpyridin-2-yl)oxy)spiro[3.3]heptan-2-yl)-3-(difluoromethyl)-6-((N-methylacetamido)methyl)imidazo[1,5-a]pyridine-1-carboxamide]
< 5	Cc1c(-c2cc(C(=O)NC3CC4(C3)CC(Oc3ncccc3C(N)=O)C4)cc(C(F)(F)F)c2)cnn1C [Example 454, 2-(((aR)-6-(3-(1,5-dimethyl-1H-pyrazol-4-yl)-5-(trifluoromethyl)benzamido)spiro[3.3]heptan-2-yl)oxy)nicotinamide]
5 to 50	NC(=O)c1cccnc1OC1CC2(CC(NC(=O)c3nc(C(F)F)n4cc(N5CCN[C@H](CO)C5)ccc34)C2)C1 (stereo partly drawn) [Example 455, N-((aR)-6-((3-carbamoylpyridin-2-yl)oxy)spiro[3.3]heptan-2-yl)-3-(difluoromethyl)-6-((S)-3-(hydroxymethyl)piperazin-1-yl)imidazo[1,5-a]pyridine-1-carboxamide]
< 5	NC(=O)c1cccnc1OC1CC2(CC(NC(=O)c3cc(N4CC5CCC(C4)O5)cc(C(F)(F)F)c3)C2)C1 [Example 456, 2-(((aR)-6-(3-(8-oxa-3-azabicyclo[3.2.1]octan-3-yl)-5-(trifluoromethyl)benzamido)spiro[3.3]heptan-2-yl)oxy)nicotinamide]
50 to 250	Cc1nc(C(=O)NC2CC3(C2)CC(Oc2ncccc2C(N)=O)C3)c2ccc(Br)cn12 [Example 457, 6-bromo-N-((aR)-6-((3-carbamoylpyridin-2-yl)oxy)spiro[3.3]heptan-2-yl)-3-methylimidazo[1,5-a]pyridine-1-carboxamide]
5 to 50	Cc1c(-c2ccc3c(C(=O)NC4CC5(C4)CC(Oc4ncccc4C(N)=O)C5)nc(C)n3c2)cnn1C [Example 458, N-((aR)-6-((3-carbamoylpyridin-2-yl)oxy)spiro[3.3]heptan-2-yl)-6-(1,5-dimethyl-H-pyrazol-4-yl)-3-methylimidazo[1,5-a]pyridine-1-carboxamide]
5 to 50	Cc1nn(C)cc1-c1ccc2c(C(=O)NC3CC4(C3)CC(Oc3ncccc3C(N)=O)C4)nc(C)n2c1 [Example 459, N-((aR)-6-((3-carbamoylpyridin-2-yl)oxy)spiro[3.3]heptan-2-yl)-6-(1,3-dimethyl-1H-pyrazol-4-yl)-3-methylimidazo[1,5-a]pyridine-1-carboxamide]
5 to 50	Cc1nc(C(=O)NC2CC3(C2)CC(Oc2ncccc2C(N)=O)C3)c2ccc(-c3cnn(C)c3)cn12 [Example 460, N-((aR)-6-((3-carbamoylpyridin-2-yl)oxy)spiro[3.3]heptan-2-yl)-3-methyl-6-(1-methyl-1H-pyrazol-4-yl)imidazo[1,5-a]pyridine-1-carboxamide]
50 to 250	NC(=O)c1cccnc1OC1CC2(CC(NC(=O)c3nc(N)nc4ccccc34)C2)C1 [Example 461, 2-Amino-N-((aR)-6-((3-carbamoylpyridin-2-yl)oxy)spiro[3.3]heptan-2-yl)quinazoline-4-carboxamide, 2 TFA]
< 5	NC(=O)c1cccnc1OC1CC2(CC(NC(=O)c3cnn4c(C5CC5)c(OCC5(O)CCC5)ccc34)C2)C1 [Example 462, N-((aR)-6-((3-carbamoylpyridin-2-yl)oxy)spiro[3.3]heptan-2-yl)-7-cyclopropyl-6-((1-hydroxycyclobutyl)methoxy)pyrazolo[1,5-a]pyridine-3-carboxamide, TFA]
